Source: patent EP1100483B1, “GLUCOCORTICOID-SELECTIVE ANTI-INFLAMMATORY AGENTS” (Abbott Laboratories, priority 1998, dated 2000)

Target: T1, human glucocorticoid receptor-α [GRX] isoform (Homo sapiens, UniProt P04150)
T1 construct: purchased Ligand Pharmaceuticals (San Diego, CA); host or cells: insect SF21 cells (baculovirus)
T1 sequence (P04150 1-777): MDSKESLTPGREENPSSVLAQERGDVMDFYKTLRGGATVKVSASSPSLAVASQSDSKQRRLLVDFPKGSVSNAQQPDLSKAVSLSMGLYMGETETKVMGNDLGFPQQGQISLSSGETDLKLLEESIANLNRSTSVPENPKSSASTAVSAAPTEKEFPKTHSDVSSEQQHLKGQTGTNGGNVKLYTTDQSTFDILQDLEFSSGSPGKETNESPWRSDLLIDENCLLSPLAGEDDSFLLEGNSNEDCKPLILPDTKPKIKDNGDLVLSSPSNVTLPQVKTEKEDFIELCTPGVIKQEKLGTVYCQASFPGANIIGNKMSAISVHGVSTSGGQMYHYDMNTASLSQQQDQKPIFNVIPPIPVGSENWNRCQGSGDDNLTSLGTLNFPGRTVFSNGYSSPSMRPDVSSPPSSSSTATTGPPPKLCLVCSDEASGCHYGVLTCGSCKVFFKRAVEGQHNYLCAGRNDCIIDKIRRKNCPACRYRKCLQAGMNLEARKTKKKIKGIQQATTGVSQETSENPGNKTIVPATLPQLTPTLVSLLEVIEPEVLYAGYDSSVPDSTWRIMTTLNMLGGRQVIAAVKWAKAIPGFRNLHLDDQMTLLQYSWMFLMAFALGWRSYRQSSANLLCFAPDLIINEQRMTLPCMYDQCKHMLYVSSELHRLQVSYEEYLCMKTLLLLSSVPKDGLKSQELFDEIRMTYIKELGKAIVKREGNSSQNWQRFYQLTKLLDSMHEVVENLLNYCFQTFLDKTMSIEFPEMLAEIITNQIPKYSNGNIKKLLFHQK
Assay: glucocorticoid receptor (GR) cytosol binding assay, [3H]-dexamethasone competition
Details: not given
Text: For glucocorticoid receptor (OR) cytosol binding assays, the procedure described in Anal. […] Briefly, cytosol preparations of human glucocorticoid receptor-α [GRX] isoform and human progesterone receptor-A [PRA] isoform were obtained from Ligand Pharmaceuticals (San Diego, CA). Both receptor cDNAs were cloned into baculovirus expression vectors and expressed in insect SF21 cells. […] Glass fiber type C multiscreen MAFC NOB plates were from Millipore ( Burlington, MA). Hydroxyapatide Bio-Gel HTP gel was obtained from Bio-Rad Laboratories (Hercules. CA). Tris(hydroxymethyl)aminomethane (Tris), ethylenediaminetetraacetic acid (EDTA), glycerol, dithiothreitol (DTT) and sodium moylybdate were obtained from Sigma Chemicals (St. Louis, MO). Microscint-20 scintillation fluid was obtained from Packard Instrument (Meriden, CT). […] GRX and PRA binding reactions were performed in Millipore Multiscreen plates. […] Specific binding was defined as the difference between binding of [^3H]Dex in the absence and in the presence of 1µM unlabeled Dex. After an overnight incubation, 50 µL of hydroxyapatite (25 % weight/volume) slurry were added to each well and plates were incubated for 10 min at 4 °C in a plate shaker. Plates were suctioned with a Millipore vacuum manifold and each well was rinsed with 300 µL of ice-cold binding buffer. A 250 µL aliquot of Packard Microscint-20 was added to each well and the wells were shaken at room temperature for 20 minutes. The amount of radioactivity was determined with a Packard TopCount plate reader.

Row | SMILES | Ki [nM]
1 | CN(C)c1ccc(C(c2ccc(N(C)C)cc2)c2ccccc2F)cc1 [Example 25, 4',4" bis(dimethylamino)-2-fluorotriphenylmethane] | 5270
2 | CN(C)c1ccc(C(c2ccc(N(C)C)cc2)c2ccccc2C(F)(F)F)cc1 [Example 10, 4',4" bis(dimethylamino)-2-trifluoromethyltriphenylmethane] | 2230
3 | CN(C)c1ccc(C(c2ccc(N3CCOCC3)cc2)c2cc([N+](=O)[O-])ccc2Cl)cc1 (stereo not shown) [Example 40, 4'-dimethylamino-4"-(N-morpholinyl)-2-chloro-5-nitrotriphenylmethane] | 252
4 | COc1ccc(C(c2ccc(N(C)C)cc2)c2ccc(N(C)C)cc2)cc1 [Example 38, 4',4"bis(dimethylamino)-4-methoxytriphenylmethane] | 4710
5 | CN(C)c1ccc(C(c2ccc(N(C)C)cc2)c2ccc(Cl)cc2Cl)cc1 [Example 18, 4',4" bis(dimethylamino)-2,4-dichlorotriphenylmethane] | 5000
6 | CN(C)c1ccc(C(c2ccc(N(C)C)cc2)c2cc(C(F)(F)F)ccc2Cl)cc1 [Example 17, 4',4" bis(dimethylamino)-2-chloro-5-trifluoromethyltriphenylmethane] | 4700
7 | CCCCN(CCCC)c1ccc(C(c2ccc(N(C)C)cc2)c2cc([N+](=O)[O-])ccc2Cl)cc1 (stereo not shown) [Example 43, 4'-dimethylamino-4"-(di-n-butylamino)-2-chloro-5-nitrotriphenylmethane] | 4490
8 | CN(C)c1ccc(C(c2ccc(N(C)C)cc2)c2cc(NC(=O)c3ccc([N+](=O)[O-])cc3)ccc2Cl)cc1 [Example 60, 4',4" bis(dimethylamino)-2-chloro-5-(4-nitrobenzamido)triphenylmethane] | 4650
9 | CN(C)c1ccc(C(c2ccc(N(C)C)cc2)c2cc(Cl)cc(Cl)c2Cl)cc1 [Example 16, 4',4" bis(dimethylamino)-2,3,5-trichlorotriphenylmethane] | 479
10 | CN(C)c1ccc(C(c2ccc(N(C)C)cc2)c2cccc(Cl)c2Cl)cc1 [Example 21, 4',4" bis(dimethylamino)-2,3-dichlorotriphenylmethane] | 1890
11 | CN(C)c1ccc(C(c2ccc(N(C)C)cc2)c2cc3c(cc2Cl)OCO3)cc1 [Example 19, 4',4" bis(dimethylamino)-2-chloro-4,5-methylenedioxytriphenylmethane] | 1600
12 | CN(C)c1ccc(C(c2ccc(N3CCCC3)cc2)c2cc([N+](=O)[O-])ccc2Cl)cc1 (stereo not shown) [Example 41, 4'-dimethylamino-4"-(N-pyrrolidinyl)-2-chloro-5-nitrotriphenylmethane] | 4490
13 | CN(C)c1ccc(C(c2ccc(N3CCCCC3)cc2)c2cc([N+](=O)[O-])ccc2Cl)cc1 (stereo not shown) [Example 46, 4'-dimethylamino-4"-(N-piperidinyl)-2-chloro-5-nitrotriphenylmethane] | 1160
14 | CN(C)c1ccc(C(c2ccc(N(C)C)cc2)c2ccccc2Br)cc1 [Example 14, 4',4" bis(dimethylamino)-2-bromotriphenylmethane] | 1510
15 | CN(C)c1ccc(C(c2ccc(N(C)C)cc2)c2cc(I)ccc2Cl)cc1 [Example 33, 4'.4" bis(dimethylamino)-2-chloro-5-iodotriphenylmethane] | 2300

Same assay, conditions: [3H]-Dex ~0.9 nM, GRX cytosol, 4 °C overnight; Cheng-Prusoff; read-out: Ki (nM) GR

Row | Ki [nM] | SMILES
16 | 1790 | CN(C)c1ccc(C(c2ccc(N(C)C)cc2)c2cc(N=Cc3ccco3)ccc2Cl)cc1 [Example 65, 4',4" bis(dimethylamino)-2-chloro-5-(2-furanylmethylimino)triphenylmethane]
17 | 1030 | CN(C)c1ccc(C(c2ccccc2)c2cc([N+](=O)[O-])ccc2Cl)cc1 (stereo not shown) [Example 56, 4'-dimethylamino-2-chloro-5-nitrotriphenylmethane]
18 | 421 | Clc1ccc(Cl)c(C(c2ccc(NCc3ccccc3)cc2)c2ccc(NCc3ccccc3)cc2)c1 [Example 37, 4',4" bis(N-benzylamino)-2,5-dichlorotriphenylmethane]
19 | 5150 | CC(=O)Nc1ccc(Cl)c(C(c2ccc(N(C)C)cc2)c2ccc(N(C)C)cc2)c1 [Example 3, 4',4" bis(dimethylamino)-5-acetamido-2-chlorotriphenylmethane]
20 | 4300 | CN(C)c1ccc(C(c2ccccc2)c2ccccc2Cl)cc1 (stereo not shown) [Example 58, 4'-dimethylamino-2-chlorotriphenylmethane]
21 | 3850 | CN(C)c1ccc(C(c2ccc(N(C)C)cc2)c2c(Cl)cccc2[N+](=O)[O-])cc1 [Example 12, 4',4" bis(dimethylamino)-2-chloro-6-nitrotriphenylmethane]
22 | 2520 | CN(C)c1ccc(C(c2ccc(N(C)C)cc2)c2cccc(Cl)c2)cc1 [Example 6, 4',4" bis(dimethylamino)-3-chlorotriphenylmethane]
23 | 5270 | COC(=O)Nc1ccc(Cl)c(C(c2ccc(N(C)C)cc2)c2ccc(N(C)C)cc2)c1 [Example 64, 4',4" bis(dimethylamino)-2-chloro-5-(methoxycarbonylamino)triphenylmethane]
24 | 757 | CN(C)c1ccc(C(c2ccc(N(C)C)cc2)c2cc(NCc3ccco3)ccc2Cl)cc1 [Example 66, 4',4" bis(dimethylamino)-2-chloro-5-(2-furanylmethylamino)triphenylmethane]
25 | 5000 | O=[N+]([O-])c1ccc(Cl)c(C(c2ccc(N3CCCCC3)cc2)c2ccc(N3CCCCC3)cc2)c1 [Example 13, 4',4" bis(N-piperidinyl)-2-chloro-5-nitrotriphenylmethane]
26 | 4200 | CN(C)c1ccc(C(c2ccc(N(C)C)cc2)c2ccc(Cl)c([N+](=O)[O-])c2)cc1 [Example 2, 4',4" bis(dimethylamino)-4-chloro-3-nitrotriphenylmethane]
27 | 4600 | CN(C)c1ccc(C(c2ccc(N(C)C)cc2)c2cc(N(S(C)(=O)=O)S(C)(=O)=O)ccc2Cl)cc1 [Example 63, 4',4" bis(dimethylamino)-2-chloro-5-(dimethylsulphonimido)triphenylmethane]
28 | 1380 | CN(C)c1ccc(C(c2ccc(N(C)C)cc2)c2cccc([N+](=O)[O-])c2)cc1 [Example 9, 4',4" bis(dimethylamino)-3-nitrotriphenylmethane]
29 | 4290 | COc1ccccc1C(c1ccc(N(C)C)cc1)c1ccc(N(C)C)cc1 [Example 8, 4',4" bis(dimethylamino)-2-methoxytriphenylmethane]
30 | 4650 | CN(C)c1ccc(C(c2ccc(Cl)cc2)c2ccc(N(C)C)cc2)cc1 [Example 5, 4',4" bis(dimethylamino)-4-chlorotriphenylmethane]

Row | SMILES | Ki [nM]
31 | CN(C)c1ccc(C(Oc2ccc(Cl)cc2)c2cc([N+](=O)[O-])ccc2Cl)cc1 (stereo not shown) [Example 53, 4-chlorophenyl-[(4'-dimethylaminophenyl)-(2-chloro-5-nitrophenyl)methyl] ether] | 788
32 | CN(C(=O)OC(C)(C)C)c1ccc(C(c2ccc(N(C)C(=O)OC(C)(C)C)cc2)c2cc([N+](=O)[O-])ccc2Cl)cc1 [Example 35, 4',4" bis(N-(t-butoxycarbonyl) N-methylamino)-2-chloro-5-nitrotriphenylmethane] | 4560
33 | Clc1cc(Cl)c(Cl)c(C(c2ccc(N3CCOCC3)cc2)c2ccc(N3CCOCC3)cc2)c1 [Example 28, 4',4" bis(N-morpholinyl)-2,3,5-trichlorotriphenylmethane] | 5270
34 | O=[N+]([O-])c1ccc(Cl)c(C(c2ccc(N3CCCC3)cc2)c2ccc(N3CCCC3)cc2)c1 [Example 29, 4',4" bis(N-pyrrolidinyl)-2-chloro-5-nitrotriphenylmethane] | 4560
